Data published in US9233957B2, “5-carbamoyl-adamantan-2-yl amide derivatives, pharmaceutically acceptable salts thereof and preparation process thereof” (SK BIOPHARMACEUTICALS CO., LTD., priority 2011, dated 2016).
Like-named read-outs stand apart in the source and are kept apart here.

How the values were obtained:
[1] = target: T1, 11b-HSD1 (Mus musculus, UniProt P50172); assay: Ex vivo PD assay: 11b-HSD1 inhibition in abdominal fat and liver tissue after oral administration to mice; conditions: mouse C57B1/6, oral, vs vehicle group; for inhibition at 20 mg/kg: 6 hr; for inhibition at 10 mg/kg: 2 hr
T1 construct: the tissues in abdominal fat and the liver were obtained; from tissue; host or cells: abdominal fat and liver of C57Bl/6 mice
T1 sequence (P50172 whole entry): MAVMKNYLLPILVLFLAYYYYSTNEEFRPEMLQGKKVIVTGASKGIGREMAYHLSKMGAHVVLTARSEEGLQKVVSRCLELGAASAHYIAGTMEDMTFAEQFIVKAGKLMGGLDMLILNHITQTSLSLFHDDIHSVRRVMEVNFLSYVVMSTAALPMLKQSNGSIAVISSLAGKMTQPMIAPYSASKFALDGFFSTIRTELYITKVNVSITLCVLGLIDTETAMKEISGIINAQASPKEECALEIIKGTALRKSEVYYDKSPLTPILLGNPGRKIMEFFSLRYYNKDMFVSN
Experimental: The prepared compound was orally administered to a mouse (C57B1/6, orient 8 week old, about 25 g, male) and in a proper amount of time (2 hours, 6 hours, 12 hours, 16 hours, and 24 hours), the mouse was sacrificed and around 30 to 40 mg of the tissues in abdominal fat and the liver were obtained. To 500 ul of a medium (RPMI, gibco) including 1 μM of cortisone (from Sigma Co. Ltd.) and 400 μM of NADPH (from Sigma Co. Ltd) was added the tissue as obtained (30-40 mg), which then reacted in a cell cultivator at 37° C. for 3 hours. After 50 ul of the reacted solution was taken and diluted with DMEM medium at a volume ratio of 1/10, the amount of cortisol being generated was measured by using a cortisol kit (assay designs Co. Ltd., ELISA kit) in accordance with the method set forth in the appended manual. From the results being measured, the degree of the inhibition was obtained by the conversion in comparison with the vehicle group (vehicle: 5% DMSO+5% cremophor in dw, the amount being proportionate to the body weight, i.e., the administration was made at the same volume as the drug being introduced). • Reference material: Published Aug. 15, 2005//JEM vol. 202 no. 4 517-527 The Rockefeller University Press % inhibition={(the amount of cortisol of the vehicle group−the amount of the cortisol of the group with the compound being administered)/(the amount of cortisol of the vehicle group)}×100
According to the above analyzing method, the efficacy of inhibiting 11b-HSD1 of the test compound in the target organ was calculated as % inhibition values, which are shown in Table 2 and Table 3.

[2] = target: T2, Human 11b-HSD1 (Homo sapiens, UniProt P28845); assay: Inhibition of cortisone-to-cortisol conversion in CHO-K1 cells over-expressing human 11b-HSD1 (HTRF cortisol assay); format: cell-based; conditions: CHO-K1 cells over-expressing human 11b-HSD1, 160 nM cortisone, 3 hours, 37° C.
T2 construct: expressed in transfected cells
T2 sequence (P28845 whole entry): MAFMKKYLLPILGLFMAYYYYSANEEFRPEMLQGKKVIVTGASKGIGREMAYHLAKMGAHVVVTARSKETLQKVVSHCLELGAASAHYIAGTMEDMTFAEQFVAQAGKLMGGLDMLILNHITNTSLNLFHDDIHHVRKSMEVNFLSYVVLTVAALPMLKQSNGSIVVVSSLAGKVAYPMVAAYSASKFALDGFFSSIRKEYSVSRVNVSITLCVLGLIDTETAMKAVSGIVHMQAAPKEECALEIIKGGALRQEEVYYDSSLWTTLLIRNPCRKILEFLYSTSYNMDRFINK
From the text: (§1) cDNA (human: Accession No. U12978.2; mouse: Accession No. NM_008288.2) coding the full-length amino acid sequence of 11β-HSD1 in a human and a mouse was incorporated into pMSCVpuro (from Clontech. Co. Ltd.), a vector of expressing a mammalian cell for the production of a retrovirus, and the resulting product was introduced into a GP2-293 cell (from Clontech Co. Ltd.), a retrovirus packing cell line together with pVSV-G vector (from Clontech Co. Ltd.) by using a Lipotamine plus reagent (from Invitrogen Co. Ltd.) in accordance with the method set forth in the appendix (by using HTRF cortisol assay kit from Cisbio assays Co., Ltd., catalog No. 62CO2PEB) and stabilized for 48 hours. Thereafter, viruses being obtained from those cells were used to infect CHO-K1 cell (from Korean Cell Line Bank, KCLB No. 10061) and in 24 hours, the cells were treated with 10 μg/ml pumycin (from Sigma Co. Ltd.) for two weeks to produce a stabilized cell system wherein each 11β-HSD1 in humans or in mice was over-expressed. When the cells being maintained, 5 μg/ml of puromycin was put into the medium and used (RPMI (Gibco), 37° C.). • Reference material: The EMBO Journal (2008) 27, 642-653
(§2) The obtained cells with 11b-HSD1 in a human and a mouse being over-expressed were sub-cultured in a 96-well plate with a cell number being 3×10^4 cells per well and stabilized for 24 hours [RPMI (Gibco), at 37° C., as being used in 5 days after thawing]. After a medium as diluted with DMSO including 160 nM of cortisone (from Sigma Co. Ltd.) and a test compound at a different concentration was put into each well in an amount of 200 ul, the well was cultured in a cell cultivator at 37° C. for 3 hours. 10 ul of the cultured solution was put into a 384 well plate and the amount of cortisol as generated was measured using a cortisol kit (from Cisbio international Co. Ltd, HTRF assay) in accordance with the method set forth in the appended manual.
(§3) As a control group, 160 nM of cortisone and 1% of DMSO were put into a corresponding well. The ground value was obtained from a well including only 160 nM of cortisone and 1% of DMSO without cells just like the control group. The calculation for a % inhibition level was made following the manual as appended. • Reference material: The Journal of Steroid Biochemistry and Molecular Biology, Volume 104, Issues 3-5, May 2007, Pages 123-129 • Bioorganic & Medicinal Chemistry Letters Volume 19, Issue 10, 15 May 2009, Pages 2674-2678
(§4) Like the analyzing method as stated above, the efficacy of inhibiting 11b-HSD1 was calculated as IC50 and the results are shown in Table 1: […]

[3] = target: T3, Mouse 11b-HSD1 (Mus musculus, UniProt P50172); assay: Inhibition of cortisone-to-cortisol conversion in CHO-K1 cells over-expressing mouse 11b-HSD1 (HTRF cortisol assay); format: cell-based; conditions: CHO-K1 cells over-expressing mouse 11b-HSD1, 160 nM cortisone, 3 hours, 37° C.
T3 construct: expressed in transfected cells
T3 sequence (P50172 whole entry): as the sequence (P50172 whole entry) above
From the text: as §1, §2, §3, §4

[4] = abdominal fat, read-out: 11b-HSD1 % inhibition in the fat
[5] = liver, read-out: 11b-HSD1 % inhibition in the liver

Compound	inhibition at 20 mg/kg [1, 4] [%]	inhibition at 20 mg/kg [1, 5] [%]	IC50 [2] [nM]	IC50 [3] [nM]	inhibition at 10 mg/kg [1, 4] [%]	inhibition at 10 mg/kg [1, 5] [%]
Cn1c(C(=O)N[C@H]2C3CC4CC2C[C@](C(N)=O)(C4)C3)ccc1-c1ccccc1Cl [Example 38, N-(5-carbamoyl-2-adamantyl)-5-(2-chlorophenyl)-1-methylpyrrole-2-carboxamide]	98	98	< 100	< 100		
Cn1c(C(=O)N[C@H]2C3CC4CC2C[C@](C(N)=O)(C4)C3)ccc1-c1ccccc1F [Example 39, N-(5-carbamoyl-2-adamantyl)-5-(2-fluorophenyl)-1-methylpyrrole-2-carboxamide]	98	96	< 100	< 100		
NC(=O)[C@]12CC3CC(C1)[C@@H](NC(=O)c1ccc(-c4ccccc4Cl)s1)C(C3)C2 [Example 43, N-(5-carbamoyl-2-adamantyl)-5-(2-chlorophenyl)thiophene-2-carboxamide]	70	59	< 100	< 100		

The next lines start with the values.

inhibition at 20 mg/kg [1, 4] [%]	inhibition at 20 mg/kg [1, 5] [%]	IC50 [2] [nM]	IC50 [3] [nM]	inhibition at 10 mg/kg [1, 4] [%]	inhibition at 10 mg/kg [1, 5] [%]	Compound
63	38	< 100	< 100			NC(=O)[C@]12CC3CC(C1)[C@@H](NC(=O)c1ccc(-c4ccccc4)s1)C(C3)C2 [Example 40, N-(5-carbamoyl-2-adamantyl)-5-phenylthiophene-2-carboxamide]
57	48	> 500	100 to 500	51	61	NC(=O)[C@]12CC3CC(C1)[C@@H](NC(=O)c1ccc4ccccc4[n+]1[O-])C(C3)C2 [Example 64, N-(5-carbamoyl-2-adamantyl)-1-oxidoquinolin-1-ium-2-carboxamide]
